According to patent US6723897B2, “Methods for controlling gibberellin levels” (Monsanto Technology, LLC, priority 1998, dated 2004):
Values joined by “and” are separate entries in the source; they are usually repeats but may differ in a detail not shown here. Equal values may be shown once.

Key:
[1] = tested on: R1 lines from pMON29220 (P-ICL/canola antisense CPS); test: Emergence of R1 canola seed (pMON29220) with exogenous GA3; assay type: in vivo, Brassica napus; details: GA3 10^−5 M to the seed or soil; lines with 2 day delay in emergence
Text: Seeds are produced from plants transformed with plasmid pMON29220 (P-ICL/canola antisense CPS). These are planted and analyzed for germination phenotype. A 2 day delay in emergence is observed for 58% of the R1 lines tested from pMON29220.

[2] = tested on: pMON29801 soybean lines 719 and 724; test: GA3 soil drench, emergence and shoot length of FMV/asCPScc soybean; assay type: in vivo, Glycine max; details: for Plant height (cm): +3 × 10^−6 M GA3 soil drench, 7 days after planting
Text: Thirty-five soybean plants are produced by transformation with pMON29801 (FIG. 7) containing the antisense CPS conserved core (asCPScc) gene driven by constitutive FMV promoter. The seed (R1) from the initial R0 transgenic lines is collected. R1 seeds are sown in 4-inch pots filled with commercial potting soil (Metromix 350) that is saturated with water or GA3 at a rate of either 3×10^−6 or 10^−5 M. Typically, 20 seeds are sown in 10 pots for each treatment, except where the seed supply is limiting. Pots are incubated in a greenhouse routinely used for soybean growth. Emergence is scored versus days after planting (DAP). Two soybean lines, 724 and 720, show a delayed emergence phenotype. Line 724 emergence is 1 to 2 days later than the control.
The timing of emergence and plant stature at for transgenic (plasmid pMON29801, FMV/asCPScc) soybean line 724 is rescued by sowing seeds in soil saturated with 3×10^−6 M GA3. At 7 days after planting (DAP), the GA3 treatment to the seeds rescued plant stature to within 10% of the A3237 control. As an additional control, soybean (A3237) seeds are coated with different concentrations of a commercial formulation of GA3 (Release®) blended with talc and sown in sand saturated with 3 mg/L ancymidol and grown in a greenhouse. Plant height is measured at 6 DAP. […] This rate is equivalent to approximately 62 mg GA3 per acre (assuming 140,000 seeds/acre).
GA3 added to plasmid pMON29801 transgenic soybean seeds as a soil drench also restores soybean emergence timing and plant height during early seedling growth. Rates of GA3 between 1×10^−6 and 1×10^−5 M, when added to soil either immediately before planting or immediately after, restores normal shoot length in emerged Line #719 seedlings (Table 5).

[3] = tested on: pMON29801 soybean line 719; test: Foliar GA3 spray, stature of FMV/asCPScc soybean; assay type: in vivo, Glycine max
Text: A foliar spray of GA3 restores normal stature of Line 719 plants. GA3 restores normal vegetative development (Table 6) when sprayed on the foliage of GA-deficient dwarf plants during vegetative development at rates between 10^−4 and 10^−6 M plus a surfactant (Tween 20, 0.05% v/v).

[4] = tested on: asCPScc soybean lines 696, 719, 720 and 724; test: Seed yield of asCPScc soybean lines treated with GA3; assay type: in vivo, Glycine max
Description: One hundred nine soybean plants from four […] lines (696, 719, 720 and 724) identified with GA-deficient phenotypes are grown to maturity and the seed harvested. Three of the lines (696, 719 and 720) required weekly spraying with GA3 to restore normal vegetative growth. […] Seed yield, seed weight per seed, pod number and seeds/pod data are collected for each plant. Data is collected in three groups for each line: plants that are wild-type; plants that are dwarfs and received no exogenous GA; and plants that are treated with exogenous GA3. […] Line 724 dwarf plants produces equivalent yields to the wild-type plants within this line without any external spraying. […] Line 724 has no reduction in seed weight in dwarfs without supplying exogenous GA.

[5] = tested on: ancymidol-treated soybean; test: GA3 soil drench restoring seedling height in ancymidol-treated soybean; assay type: in vivo, Glycine max
Text: For example, in side-by-side comparisons using soybean, the same dose of GA3 gives substantial differences in hypocotyl elongation depending on the method of application. The relative sensitivity can be: soil drench>hilum treatment>seed imbibition). Also, the dose of GA3, applied as a soil drench, that is needed to fully restore normal seedling height in ancymidol-treated soybean increases with time after planting (10^−7M at 4 DAP; greater than 10^−5 M at 11 DAP).

[6] = Concentration of 14C-GA3 in germinating soybean seedlings after seed treatment; assay type: in vivo, Glycine max
Text: Application of ^14C-GA3 to Asgrow 3237 soybeans as a seed treatment via the hilum at a rate (5-20 ppm) within the range effective in rescuing the hypocotyl of dwarf, GA-deficient plants causes a substantial oversupply in the level of GA3 compared to the levels of endogenous bioactive gibberellins GA1 and GA4 in germinating soybean seeds (FIG. 39). The data upon which FIG. 39 is based are taken from the experiment described below in the section entitled “Determination of half-lives and distribution of ^14C-labeled GA compounds in planta”. More particularly, the data in FIG. 39 are taken from the experiment in which ^14C-GA3 is applied to the hilum at 20 ppm.
The concentration of GA3 in the seedling axis appeared to be directly proportional to the amount of GA3 applied to the seed.
The details are as follows.

[7] = Half-lives of 14C-labelled GA compounds in soil; details: spinks soil, aerobic, 25° C., darkness; read-out: Half-life (days) in soil (converted)
Description: Metabolic studies in soil are conducted with ^14C-labelled GA compounds in order to investigate the route and rate of compound degradation in soil under aerobic conditions. ^14C-labelled GA compounds are obtained from Lew Mander (Australian National University). The ^14C-labelled compounds dissolved in 0.2-2 ml water:ethanol, 80:20, v/v, are applied to 50-60 gm portions of spinks soil (USDA classification Loamy Sand: 82% sand, 14% silt, and 4% clay) in 250 ml centrifuge bottles at a rate of 0.1-0.2 ppm (6-12 μg; approximately 1,200,000 dpm per soil sample. The soil samples are placed in a glass dessicator which served as a container for all soil bottles. The glass dessicator is connected to three separate trapping solutions in series, each containing 20 ml of ethylene glycol:ethanolamine, 2:1, v/v. Air is pulled into the glass dessicator and through the trapping solutions by house vacuum. The trapping solutions are used to collect ^14C-volatiles and ^14C-CO2. Soil samples are incubated for eight days at 25° C. in darkness. For most experiments, duplicate soil samples are harvested 0, 6, 12, 24, 46, 72, 120, and 192 hours after initial treatment. Soil samples are extracted twice with 100 ml of water:methanol, 20:80, v/v, and the combined extracts are analyzed by HPLC under the same conditions as described for the determination of half-lives of GA compounds in planta, above.

[8] = tested on: wild-type (A3237) soybean; test: Hilum treatment with GA15, GA19, GA24, GA44, hypocotyl length, wild-type soybean; details: 10 μg/seed, 5 DAP
Description: The purpose of this experiment is to evaluate potential gibberellin rescue agents occurring at an intermediate or middle portion of the gibberellin biosynthesis pathway (between GA53/GA12 and GA20/GA9) as seed treatments. These GA compounds are tested using hilum treatment and comparing activity on GA-deficient soybean plants and normal (wild-type) plants.
Wild-type A3237 soybeans are obtained from Asgrow Seed Company. Transgenic seeds are fifth generation (R5) line 719 seeds.
The GA compounds are dissolved in absolute ethanol at a concentration of approximately 10 μg/ml. Compounds are applied to the hilum of dry soybean seed as 1 μl drops. Seeds are sown in 4-inch plastic pots (2 pots per treatment; 5 seeds/pot) containing commercial potting soil (Metromix 200) placed in a greenhouse set for 12 hr light, and day and night temperatures of 85° F. (29° C.) and 75° F. (24° C.), respectively. After all treatments are emerged (5 DAP), hypocotyl length is measured.

[9] = 'no GA': single spray treatment at 21 DAP with GA, not further sprayed
[10] = GA sprayed approximately every week starting at 21 DAP

## C=C1C[C@]23C[C@@]1(O)CC[C@H]2[C@@]12C=C[C@H](O)[C@@](C)(C(=O)O1)[C@H]2[C@@H]3C(=O)O [GA3, gibberellic acid]
[1]
  emergence delay: rescuing the emergence delay
[2]; R1 line 719
  Plant height (cm): 11.3 (1.0) cm
[2]; R1 line 724
  Plant height (cm): 10.9 (0.9) cm
[2]; line 724, soil saturated with 3×10^−6 M GA3, 7 DAP
  plant stature, difference from the A3237 control: ≤ 10%
[3]; [9]
  Plant height (cm), 21 DAP: 2.0 cm and 2.5 cm
  Plant height (cm), 50 DAP: 13 cm
[3]; [10]
  Plant height (cm), 21 DAP: 2.5 cm
  Plant height (cm), 50 DAP: 61 cm and 56 cm
[4]; dwarf plants, GA treatments
  reduction of seed weight per seed: nearly completely rescued
[4]; dwarfs treated continuously with GA3, lines 696 and 719
  seed yield restored, % of the yield of the wild-types: 70%
[5]; 4 DAP
  dose of GA3 needed to fully restore normal seedling height: 10^−7 M
[5]; 11 DAP
  dose of GA3 needed to fully restore normal seedling height: greater than 10^−5 M
[6]; 20 ppm, 1 DAP
  GA3 in seedling axis relative to combined endogenous bioactive GAs in untreated tissue: approximately 100 times higher
[6]; Asgrow 3237, soybean (Glycine max), seedling axis, other: seed treatment applied to the hilum, ^14C-GA3 applied to the hilum at 20 ppm, one day after planting, read-out: calculated concentration of GA3 delivered to the seedling axis
  concentration at 1 day after planting: 4.31 µM
[7]
  half-life: 0.5 days
[8]
  hypocotyl elongation of wild-type (A3237) soybean (FIG. 41): overelongation of A3237 hypocotyls
